For 34 compounds, IC50 results are on record in patent US12336981B2, “Compounds and compositions for the inhibition of NAMPT” (Valo Health, Inc., priority 2010, dated 2025).

The target of one test is T1, NAMPT (Homo sapiens, UniProt P43490).
T1 construct: His tag; host or cells: E. coli
In words: Biochemical inhibition assay: NAMPT enzymatic reaction, NMN quantified by mass spectrometry. As to conditions: read-out: Biochem IC50. In short, it runs like this:
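Inhibition of E. coli-expressed His-tagged human NAMPT, measured as NMN formation by mass spectrometry after a 30 min room-temperature reaction containing 1 μM NAM, 100 μM PRPP and 2.5 mM ATP.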

In a further test the test system is A2780 cells. Nature of the test: In-vitro cell proliferation assay (SRB), A2780 cells. Particulars: Homo sapiens, A2780, 72 h, A2780 cells, 72 hours, read-out: A2780 IC50. The format is cell-based. The method in brief: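 Read-out is SRB absorbance at 570 nm on TCA-fixed cells after 72 hours of compound treatment at 37° C. in 5% CO2. Background from a media-only plate is subtracted, and % inhibition is interpolated between two tested concentrations.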

Where two headings read alike, the source gives them in different places.

Broadly, the IC50 is the point on the concentration scale where inhibition reaches its midpoint.

T1 sequence (P43490 whole entry): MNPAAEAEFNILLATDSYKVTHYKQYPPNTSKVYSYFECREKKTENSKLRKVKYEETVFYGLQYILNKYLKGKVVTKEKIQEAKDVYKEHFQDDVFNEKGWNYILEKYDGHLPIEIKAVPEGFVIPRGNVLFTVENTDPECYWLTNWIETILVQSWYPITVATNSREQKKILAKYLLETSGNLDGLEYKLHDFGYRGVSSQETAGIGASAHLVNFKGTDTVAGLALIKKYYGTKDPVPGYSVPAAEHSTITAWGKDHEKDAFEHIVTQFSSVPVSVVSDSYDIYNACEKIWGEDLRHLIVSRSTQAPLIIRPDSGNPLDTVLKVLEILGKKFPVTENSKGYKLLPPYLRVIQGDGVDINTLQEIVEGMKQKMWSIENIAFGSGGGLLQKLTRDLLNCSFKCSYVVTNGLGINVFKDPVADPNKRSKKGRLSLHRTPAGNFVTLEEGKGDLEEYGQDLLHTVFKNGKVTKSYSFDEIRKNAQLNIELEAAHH

For the compound `Cc1ccc(S(=O)(=O)c2ccc(CNC(=O)c3cc4ccncc4s3)cc2)s1` [N-{[4-(5-methylthiophene-2-sulfonyl)phenyl]methyl}thieno[2,3-c]pyridine-2-carboxamide], the results for the IC50 at NAMPT (NAMPT enzymatic reaction) and with A2780 cells (SRB assay) were 5 nM and 7.7 nM, respectively.
On to `COc1ccc2cc(S(=O)(=O)c3ccc(CNC(=O)c4cc5cnccc5[nH]4)cc3)ccc2c1` [N-{[4-(6-methoxynaphthalene-2-sulfonyl)phenyl]methyl}-1H-pyrrolo[3,2-c]pyridine-2-carboxamide], for which the IC50 was 9.9 nM at NAMPT (NAMPT enzymatic assay) and 5.1 nM in the test on A2780 cells (SRB).
In the case of `COc1ccc2cc(S(=O)(=O)c3ccc(CNC(=O)c4cc5ccncc5o4)cc3)ccc2c1` [N-{[4-(6-methoxynaphthalene-2-sulfonyl)phenyl]methyl}furo[2,3-c]pyridine-2-carboxamide], the IC50 at NAMPT (NAMPT enzymatic assay) is 3 nM; in the test on A2780 cells (SRB) it was 3.6 nM.
For the compound `COc1ccc2cc(S(=O)(=O)c3ccc(CNC(=O)c4ccc5nccn5c4)cc3)ccc2c1` [N-{[4-(6-methoxynaphthalene-2-sulfonyl)phenyl]methyl}imidazo[1,2-a]pyridine-6-carboxamide], the figures for the IC50 on NAMPT (NAMPT enzymatic assay) and in the test with A2780 cells (SRB) were 2.7 nM and 1.8 nM, respectively.
For the compound `COc1ccc2cc(S(=O)(=O)c3ccc(CNC(=O)c4cc5ccncc5s4)cc3)ccc2c1` [N-{[4-(6-methoxynaphthalene-2-sulfonyl)phenyl]methyl}thieno[2,3-c]pyridine-2-carboxamide], the IC50 at NAMPT (NAMPT enzymatic assay) amounted to 1.5 nM; in the test on A2780 cells (SRB) it was 3.3 nM.
The corresponding values for `COc1cccc(S(=O)(=O)c2ccc(CNC(=O)c3ccc4nccn4c3)cc2)n1` [N-{[4-(6-methoxypyridine-2-sulfonyl)phenyl]methyl}imidazo[1,2-a]pyridine-6-carboxamide] are 5.2 nM and 1.3 nM.
The corresponding values for `COc1cccc(S(=O)(=O)c2ccc(CNC(=O)c3cnc4nccn4c3)cc2)n1` [N-{[4-(6-methoxypyridine-2-sulfonyl)phenyl]methyl}imidazo[1,2-a]pyrimidine-6-carboxamide] are 2.2 nM and 5.9 nM.
Take `Cc1cncc(S(=O)(=O)c2ccc(CNC(=O)c3cnc4[nH]ncc4c3)cc2)n1` [N-{[4-(6-methylpyrazine-2-sulfonyl)phenyl]methyl}-1H-pyrazolo[3,4-b]pyridine-5-carboxamide]: the half-maximal inhibitory concentration (IC50) at NAMPT (NAMPT enzymatic assay) is 34.9 nM; in the test on A2780 cells (SRB), 31.2 nM.
Turning to `Cc1cncc(S(=O)(=O)c2ccc(CNC(=O)c3cc4ccncc4o3)cc2)n1` [N-{[4-(6-methylpyrazine-2-sulfonyl)phenyl]methyl}furo[2,3-c]pyridine-2-carboxamide], the results for the IC50 on NAMPT (NAMPT enzymatic assay) and in the test with A2780 cells (SRB) were 20.9 nM and 9.7 nM, respectively.
The corresponding values for `Cc1cncc(S(=O)(=O)c2ccc(CNC(=O)c3cnc4nccn4c3)cc2)n1` [N-{[4-(6-methylpyrazine-2-sulfonyl)phenyl]methyl}imidazo[1,2-a]pyrimidine-6-carboxamide] are 1 nM and 52.5 nM.
The corresponding values for `Cc1cncc(S(=O)(=O)c2ccc(CNC(=O)c3cc4ccncc4s3)cc2)n1` [N-{[4-(6-methylpyrazine-2-sulfonyl)phenyl]methyl}thieno[2,3-c]pyridine-2-carboxamide] are 4.8 nM and 5.1 nM.
Take `Cc1cccc(S(=O)(=O)c2ccc(CNC(=O)c3cc4ccncc4o3)cc2)n1` [N-{[4-(6-methylpyridine-2-sulfonyl)phenyl]methyl}furo[2,3-c]pyridine-2-carboxamide]: the results for the concentration for half-maximal inhibition (IC50) on NAMPT (NAMPT enzymatic assay) and with A2780 cells (SRB) were 12.8 nM and 12.5 nM, respectively.
The corresponding values for `Cc1ccc(S(=O)(=O)c2ccc(CNC(=O)c3cnc4[nH]ncc4c3)cc2)cn1` [N-{[4-(6-methylpyridine-3-sulfonyl)phenyl]methyl}-1H-pyrazolo[3,4-b]pyridine-5-carboxamide] are 24.1 nM and 21.3 nM.
As for `Cc1ccc(S(=O)(=O)c2ccc(CNC(=O)c3cc4cnccc4[nH]3)cc2)cn1` [N-{[4-(6-methylpyridine-3-sulfonyl)phenyl]methyl}-1H-pyrrolo[3,2-c]pyridine-2-carboxamide], the IC50 at NAMPT (NAMPT enzymatic assay) came to 55.7 nM; in the test on A2780 cells (SRB), 13 nM.
The corresponding values for `Cc1ccc(S(=O)(=O)c2ccc(CNC(=O)c3ccc4nccn4c3)cc2)cn1` [N-{[4-(6-methylpyridine-3-sulfonyl)phenyl]methyl}imidazo[1,2-a]pyridine-6-carboxamide] are 21.5 nM and 13.9 nM.
The corresponding values for `Cc1ccc(S(=O)(=O)c2ccc(CNC(=O)c3cnc4nccn4c3)cc2)cn1` [N-{[4-(6-methylpyridine-3-sulfonyl)phenyl]methyl}imidazo[1,2-a]pyrimidine-6-carboxamide] are 5.9 nM and 55.5 nM.
The corresponding values for `Cc1ccc(S(=O)(=O)c2ccc(CNC(=O)c3cc4ccncc4s3)cc2)cn1` [N-{[4-(6-methylpyridine-3-sulfonyl)phenyl]methyl}thieno[2,3-c]pyridine-2-carboxamide] are 22 nM and 6.3 nM.
Consider `O=C(NCc1ccc(S(=O)(=O)c2ccccc2)cc1)c1ccc2ncccc2n1` [N-{[4-(benzenesulfonyl)phenyl]methyl}-1,5-naphthyridine-2-carboxamide], for which the concentration for half-maximal inhibition (IC50) at NAMPT (NAMPT enzymatic reaction) is 875 nM; in the test with A2780 cells (SRB assay), over 10000 nM.
Regarding `O=C(NCc1ccc(S(=O)(=O)c2ccccc2)cc1)c1ccc2cnccc2n1` [N-{[4-(benzenesulfonyl)phenyl]methyl}-1,6-naphthyridine-2-carboxamide], the figures for the IC50 on NAMPT (NAMPT enzymatic assay) and in the test with A2780 cells (SRB) were 2850 nM and over 10000 nM, respectively.
With `Cn1ncc2cc(C(=O)NCc3ccc(S(=O)(=O)c4ccccc4)cc3)cnc21` [N-{[4-(benzenesulfonyl)phenyl]methyl}-1-methyl-1H-pyrazolo[3,4-b]pyridine-5-carboxamide], the IC50 on NAMPT (NAMPT enzymatic reaction) is 1730 nM; in the test on A2780 cells (SRB assay), over 30000 nM.
The corresponding values for `Cn1c(C(=O)NCc2ccc(S(=O)(=O)c3ccccc3)cc2)cc2cnccc21` [N-{[4-(benzenesulfonyl)phenyl]methyl}-1-methyl-1H-pyrrolo[3,2-c]pyridine-2-carboxamide] are over 10000 nM and over 30000 nM.
The corresponding values for `O=C(NCc1ccc(S(=O)(=O)c2ccccc2)cc1)N1CCc2[nH]cnc2C1` [N-{[4-(benzenesulfonyl)phenyl]methyl}-1H,4H,5H,6H,7H-imidazo[4,5-c]pyridine-5-carboxamide] are over 2000 nM and over 2000 nM.
The corresponding values for `O=C(NCc1ccc(S(=O)(=O)c2ccccc2)cc1)N1CCc2[nH]ncc2C1` [N-{[4-(benzenesulfonyl)phenyl]methyl}-1H,4H,5H,6H,7H-pyrazolo[4,3-c]pyridine-5-carboxamide] are over 2000 nM and over 2000 nM.
As for `O=C(NCc1ccc(S(=O)(=O)c2ccccc2)cc1)c1nc2cnccc2[nH]1` [N-{[4-(benzenesulfonyl)phenyl]methyl}-1H-imidazo[4,5-c]pyridine-2-carboxamide], the results for the IC50 on NAMPT (NAMPT enzymatic reaction) and in the test on A2780 cells (SRB assay) were 7060 nM and 5370 nM, respectively.
The corresponding values for `O=C(NCc1ccc(S(=O)(=O)c2ccccc2)cc1)c1n[nH]c2ncccc12` [N-{[4-(benzenesulfonyl)phenyl]methyl}-1H-pyrazolo[3,4-b]pyridine-3-carboxamide] are 1270 nM and over 10000 nM.
The corresponding values for `O=C(NCc1ccc(S(=O)(=O)c2ccccc2)cc1)c1cnc2[nH]ncc2c1` [N-{[4-(benzenesulfonyl)phenyl]methyl}-1H-pyrazolo[3,4-b]pyridine-5-carboxamide] are 70 nM and 51 nM.
The corresponding values for `O=C(NCc1ccc(S(=O)(=O)c2ccccc2)cc1)c1cnc2[nH]ccc2c1` [N-{[4-(benzenesulfonyl)phenyl]methyl}-1H-pyrrolo[2,3-b]pyridine-5-carboxamide] are 1910 nM and over 30000 nM.
Take `O=C(NCc1ccc(S(=O)(=O)c2ccccc2)cc1)c1c[nH]c2ccncc12` [N-{[4-(benzenesulfonyl)phenyl]methyl}-1H-pyrrolo[3,2-c]pyridine-3-carboxamide]: the IC50 amounted to 1910 nM at NAMPT (NAMPT enzymatic assay) and 2060 nM in the test on A2780 cells (SRB).
As to `O=C(NCc1ccc(S(=O)(=O)c2ccccc2)cc1)c1cc(-c2ccccn2)n[nH]1` [N-{[4-(benzenesulfonyl)phenyl]methyl}-3-(pyridin-2-yl)-1H-pyrazole-5-carboxamide], the IC50 on NAMPT (NAMPT enzymatic reaction) stood at 7430 nM; in the test on A2780 cells (SRB assay), 23400 nM.
The corresponding values for `O=C(NCc1ccc(S(=O)(=O)c2ccccc2)cc1)c1cc(-c2cccnc2)no1` [N-{[4-(benzenesulfonyl)phenyl]methyl}-3-(pyridin-3-yl)-1,2-oxazole-5-carboxamide] are 33 nM and over 30000 nM.
Regarding `O=C(NCc1ccc(S(=O)(=O)c2ccccc2)cc1)c1cc(-c2ccncc2)n[nH]1` [N-{[4-(benzenesulfonyl)phenyl]methyl}-3-(pyridin-4-yl)-1H-pyrazole-5-carboxamide], the IC50 on NAMPT (NAMPT enzymatic reaction) was found to be 3180 nM; with A2780 cells (SRB assay), 21600 nM.
The corresponding values for `O=C(NCc1ccc(S(=O)(=O)c2ccccc2)cc1)c1[nH]c2ccncc2c1Br` [N-{[4-(benzenesulfonyl)phenyl]methyl}-3-bromo-1H-pyrrolo[3,2-c]pyridine-2-carboxamide] are 306 nM and 7390 nM.
The corresponding values for `O=C(NCc1ccc(S(=O)(=O)c2ccccc2)cc1)N1CCc2nocc2C1` [N-{[4-(benzenesulfonyl)phenyl]methyl}-4H,5H,6H,7H-[1,2]oxazolo[4,3-c]pyridine-5-carboxamide] are over 2000 nM and over 2000 nM.
The corresponding values for `O=C(NCc1ccc(S(=O)(=O)c2ccccc2)cc1)N1CCc2ncccc2C1` [N-{[4-(benzenesulfonyl)phenyl]methyl}-5,6,7,8-tetrahydro-1,6-naphthyridine-6-carboxamide] are 544 nM and over 2000 nM.
